# Data taken from ChEMBL document CHEMBL1128976, “Unsaturated thioacetic acids as novel mechanism-based inhibitors of peptidylglycine -hydroxylating monooxygenase” (Bioorg Med Chem Lett, 1996).
# Target: T1, Peptidyl-glycine alpha-amidating monooxygenase (Homo sapiens) (UniProt P19021)
# T1 sequence (whole entry): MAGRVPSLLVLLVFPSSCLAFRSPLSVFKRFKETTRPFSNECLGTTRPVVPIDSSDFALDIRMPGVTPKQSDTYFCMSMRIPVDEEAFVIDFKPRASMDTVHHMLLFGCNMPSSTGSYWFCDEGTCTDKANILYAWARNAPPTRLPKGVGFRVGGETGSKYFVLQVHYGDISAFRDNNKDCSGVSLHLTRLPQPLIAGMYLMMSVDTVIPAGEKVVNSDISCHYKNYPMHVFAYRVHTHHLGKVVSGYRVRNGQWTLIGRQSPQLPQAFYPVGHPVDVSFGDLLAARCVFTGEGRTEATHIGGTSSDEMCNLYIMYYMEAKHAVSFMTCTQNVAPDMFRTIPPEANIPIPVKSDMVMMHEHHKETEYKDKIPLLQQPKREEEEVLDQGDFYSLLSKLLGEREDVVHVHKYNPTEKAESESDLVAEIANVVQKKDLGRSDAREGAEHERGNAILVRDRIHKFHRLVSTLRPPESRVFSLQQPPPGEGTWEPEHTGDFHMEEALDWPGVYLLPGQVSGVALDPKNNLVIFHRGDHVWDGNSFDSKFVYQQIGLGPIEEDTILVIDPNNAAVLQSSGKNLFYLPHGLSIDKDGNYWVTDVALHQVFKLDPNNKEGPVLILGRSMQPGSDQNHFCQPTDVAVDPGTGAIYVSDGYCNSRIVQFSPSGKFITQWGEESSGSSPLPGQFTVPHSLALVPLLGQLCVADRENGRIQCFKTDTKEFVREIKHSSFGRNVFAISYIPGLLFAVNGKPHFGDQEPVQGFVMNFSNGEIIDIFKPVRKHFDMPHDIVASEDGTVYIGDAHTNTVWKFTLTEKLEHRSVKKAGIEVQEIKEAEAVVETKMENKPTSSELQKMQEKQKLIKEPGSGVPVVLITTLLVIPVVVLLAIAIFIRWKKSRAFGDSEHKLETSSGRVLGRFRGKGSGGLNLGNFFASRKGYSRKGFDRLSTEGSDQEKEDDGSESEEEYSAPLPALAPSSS
# Assay: Kinetic constant for inhibition of peptidylglycine alpha hydroxylating monooxygenase (PHM) was determined
# Conditions: Equus caballus
row,K inact,SMILES
1,0.2 min⁻¹,O=C(O)CS/C=C/c1ccccc1
2,0.06 min⁻¹,O=C(O)CSC#Cc1ccccc1
